Values of other authors in patent US20090202633A1, “Extended release formulations of guaifenesin” (priority 2008, published 2009).

How the values were obtained:
[1] = not given; remark: listed apart in the source

solubility in water: soluble in water
typical plasma half-life [1]: approximately one
Structure (SMILES): COc1ccccc1OCC(O)CO (centres unmarked) [Guaifenesin, 3-(2-methoxyphenoxy)-1,2-propanediol]
